Results as given in US20200268864A1, “CANCER VACCINE COMPOSITIONS AND METHODS FOR USING SAME TO TREAT CANCER” (Dana-Farber Cancer Institute, Inc., priority 2017, published 2020).
“Also recorded” adds a separate entry of the source. Residues, ends and D or L forms follow the SMILES beside them. *: point of attachment. Cbz = O=C(OCc1ccccc1)*; CH2F = FC*

What was measured:
[1] = test system: Brca1-proficient and Brca1-deficient tumor cells; test: Measurement of IC50 value in tumor cells (MTS, 72 h); type: cell-based; conditions: three pairs of models; for gemcitabine except PPM and PBM cells
Procedure: Tumor cells were seeded in 96-well plates at a density of 1000-3000/well and allowed to adhere overnight. Cells were then exposed to appropriate concentrations of therapeutic agents (or vehicle control) with continuous exposure for 72 h. Growth inhibition was measured by CellTiter Aqueous MTS reagent from Promega by comparing the absorbance at 490 nm of drug-treated cells to that of untreated controls set at 100%. 1C50 values were calculated using non-linear regression model (logarithmic inhibitor vs. normalized response-variable slope) in Graphpad Prism 7.

[2] = test system: STING pathway in BMDCs co-cultured with PBM cells; test: Co-culture of BMDCs with olaparib-treated PBM tumor cells; type: cell-based, mouse
Procedure: (§1) Blood was obtained by retro-orbital sampling at intermediate time points or experimental end points. Blood cells and plasma/sera were separated by centrifugation at 1,500×g for 5 min. at 4° C. Plasmaisera were sent out to Eve Technologies for cytokine array analysis (Chemokine Array 31-Plex and Mouse Procarta IFN 2-plex Featured Assay). Plasma/sera were applied to ELISA according to manufacturer's instructions. For in vitro experiments, cell culture supernatants were obtained by centrifugation at 1,500×g for 5 min. at 4° C. to remove all debris and cells, and were then subjected to ELISA analysis. IFN-β was detected using the LEGEND MAX™ Mouse IFN-β ELISA Kit (BioLegend).
Bone marrow cells were isolated from FVB/NJ mice and cultured in RPMI-1640 containing 10% FBS and 20 ng/ml GM-CSF. BMDCs (bone marrow derived dendritic cells) were harvested for in vitro co-culture assay on day 7 to day 10. About 3×10^5 PBM or PPM tumor cells were cultured in a 6-well plate for 24 hr. and then treated with DMSO or olaparib. After 24 hr incubation with DMSO, olaparib, or olaparib in combination with other drugs (cell cycle inhibitor or apoptosis inhibitor), drugs were removed and tumor cells were washed twice with PBS. BMDCs were added and co-cultured with PBM or PPM cells at a ratio of 1:1 in 1.5 ml culture media in the presence of GM-CSF (20 ng/ml) and lipofectamine (2 μl) for 24 hr. Co-cultured cells were harvested for flow cytometry analysis and floating cells (percentage of BMDCs is about 90%), or RNA analysis. Cell culture supernatants were collected for detection of IFN-β with the ELISA kit. BMDCs generated from C57BL/6J mice were applied for the coculture of BMDCs with ID8 tumor cells. Human dendritic cells purchased from Lonza were used for the coculture of human DCs with DMSO or olaparib-treated human ovarian cancer cells ([…] and UWB1.289+BRCA1).
(§2) About 50 to 100 mg of tumor samples were homogenized in 1 ml of TRIzol™ Reagent supplied with 200 μl of stainless steel beads and 0.2 ml of chloroform was added to the samples. Samples were vortexed vigorously for 15 seconds and then incubated at room temperature for 2 to 3 minutes. After centrifugation at 12,000×g for 15 minutes at 4° C., upper aqueous phase of the samples was carefully removed to a new tube and the total RNA was purified using an RNeasy® Mini Kit (Qiagen) according to manufactory's instruction. For the in vitro cultured cell samples, total RNA was isolated using an RNeasy® Mini Kit. The qPCR was performed on an Applied Biosystems 7300 machine after the total RNA was reverse transcribed to cDNA using the SuperScript® III First-Strand Synthesis System (Invitrogen). Primers used for qPCR were as follows: […]

[3] = test system: PBM tumors (Trp53−/−; Brca1−/−; c-Myc); test: Orthotopic PBM tumor allograft growth and survival (bioluminescence); type: in vivo, mouse; conditions: PBM tumors; agent given together with olaparib
Procedure: All animal experiments described in this study were performed according to the animal protocols approved by the DFCI Institutional Animal Care and Use Committee. Brca1^loxP/loxP [FVB/N] mice, bearing loxP sites in introns 4 and 13 of the Brca1 gene, and Trp53^loxP/loxP[FVB/N] mice bearing loxP in introns 2 and 10 of the p53 gene, were obtained from Dr. Jos Jonkers's laboratory (Netherlands Cancer Institute, Amsterdam, The Netherlands). These mice were intercrossed through multiple generations to create a colony of homozygous Trp53^loxP/loxP/Brca1^loxP/loxP double conditional knockout mice. Ovaries were harvested from 8-week-old female Trp53^loxP/loxP/Brca1^loxP/loxP mice. The ovaries were washed twice with phosphate-buffered and incubated in DMEM/F12 (Ham's) medium containing collagenase and dispase (stem cell technologies) for 40 min at 37° C. The epithelial cells were pelleted by centrifugation at 800×g and cultured in DMEM/F12 (Life Technologies) supplemented with 4% (vol/vol) FBS, 1% penicillin/streptomycin, 10 ng/mL EGF, 5 μg/mL insulin, 5 Cpg/mL transferrin, and 5 ng/mL sodium selenite. Ovarian surface epithelial (OSE) cells were cultured for 48 hr and then introduced with Adeno-Cre (University of Iowa) and lentiviruses expressing C-Myc gene (Addgene #36980) or control GFP. After two days of infection in vitro, OSE cells are aggregated and implanted into recipient mice. About 5×10^5 OSE cells (Trp53^−/−; Brca1^−/−; c-Myc) were injected into the right ovarian bursal cavities of 6- to 7-week-old female nude mice. In each mouse, the left ovarian bursa was injected with GFP-expressing OSE cells (Trp53^−/−; Brca1^−/−; GFP). PBM (Trp53^−/−; Brca1^−/−; c-Myc) ovarian tumors developed within three to six months after implantation of the genetically engineered OSE cells. The primary ovarian tumors were digested and orthotopically transplanted to FVB/NJ mice. The PPM GEM model (Trp53^−/−; Pten^−/−; c-Myc) was developed with OSE cells isolated from homozygous Trp53^loxP/loxP/Pten^loxP/loxP(FVB/NJ) double conditional knockout mice using the same strategy for generation of the PBM GEM model described above. For histological analysis, tumor pieces were fixed in 10% Formalin overnight and transferred to 70% ethanol. Embedding, sectioning and H&E staining was performed by scientists at the Harvard rodent histopathology core facility. The histological characteristics of high grade ovarian tumor were confirmed by two independent pathologists at Harvard Medical School.
Single cells were obtained by digestion of primary ovarian tumors in collagenase buffer and then cultured in MOT media (DMEM/F12, 0.6% FBS, 10 ng/ml EGF, hydrocortisone 1 μg/ml, cholera toxin 1 ng/ml, 100 μg/ml penicillin-streptomycin, 5 μM Y27632). […] The endpoints were determined by tumor burden and ascites. […]

STING signaling in BMDCs = test: BMDCs stimulated with STING agonist DMXAA; type: cell-based, mouse
Procedure: as §1, §2

[4] = test system: STING pathway in BMDCs co-cultured with ID8 cells; test: Co-culture of BMDCs with drug-treated WT or Brca1-null ID8 cells; type: cell-based, mouse; conditions: co-cultured with both Brca1-deficient and Brca1 proficient ID8 cells
Procedure: Brca-1 deficient ID8 cells were generated using a CRISPR double nickase plasmid. ID8 cells cultured in a 6-well plate were transfected with 2 μg/well of BRCA1 double nickase plasmid (sc419362-NIC, Santa Cruz Biotechnology) or control double nickase plasmid (SC-437281, Santa Cruz Biotechnology) using lipofectamine 3000 (Invitrogen). 48 hrs post-transfection, cells were passaged onto a 10 cm plate. After 24 h, puromycin (3 μg/mL) was added to the culture for selection. Puromycin resistant cells were selected and expanded. Due to a lack of a reliable mouse BRCA1 antibody for Western blot, cells were analyzed by DNA sequencing to confirm the disruption of functional Brca1 allele. To generate ID8 tumors, cultured ID8 cells were harvested and resuspended in serum free DMEM. Cells were then mixed with Matrigel (Corning). A total volume of 0.1 ml containing 5×10^6 ID8 cells and 40% Matrigel were injected subcutaneously into the flank of C57BL/6J mice.
Bone marrow cells were isolated from FVB/NJ mice and cultured in RPMI-1640 containing 10% FBS and 20 ng/ml GM-CSF. BMDCs (bone marrow derived dendritic cells) were harvested for in vitro co-culture assay on day 7 to day 10. About 3×10^5 PBM or PPM tumor cells were cultured in a 6-well plate for 24 hr. and then treated with DMSO or olaparib. […]

`Cn1ncnc1[C@H]1c2n[nH]c(=O)c3cc(F)cc(c23)N[C@@H]1c1ccc(F)cc1` [talazoparib] was tested, and the “IC50 values, Brca1-deficient lines in comparison to Brca1-proficient counterparts” value (shortened to “IC50 values, Brca1-deficient lines”) [1] was “much more sensitive”.
`Nc1ccn([C@@H]2O[C@H](CO)[C@@H](O)C2(F)F)c(=O)n1` [gemcitabine] was tested, and the “IC50 values, Brca1-deficient lines” value [1] was “no substantial differences”.
`CC(NC(=O)C(NC(=O)OCc1ccccc1)C(C)C)C(=O)NC(CC(=O)O)C(=O)CF` (stereo not drawn) [zVAD] (Cbz-Val-Ala-Asp-CH2F; configuration not given here) was tested, and the “effect of apoptosis inhibitor on activation of DCs co-cultured with olaparib-treated PBM cells” value ([2]; zVAD 10 μM with olaparib 2.5 μM, 24 h pre-treatment) was “little effect”.
In the case of `O=C(NCCCNc1nc(Nc2cccc(NC(=O)N3CCCC3)c2)ncc1I)c1cccs1` [BX795], the “effect of added agent on olaparib-induced tumor inhibition / antitumor activity of olaparib” value [3] is reported as “blocked the anti-tumor activity of olaparib; also recorded: attenuated”, the “effect on olaparib-induced IFNβ/CXCL10 expression and STING activation in co-cultured DCs” value ([2]; agent added to the co-culture) is reported as “abrogated” and the “effect on olaparib-induced phosphorylation of TBK1 in CD11c dendritic cells” value ([2]; agent added to the co-culture) is reported as “reduced”. The “effect on DMXAA-induced IFN-β production from BMDCs” value (STING signaling in BMDCs; BX795 2 μM, 2 h) was “abolished”.
In the case of `Cc1ccc2c(=O)c3cccc(CC(=O)O)c3oc2c1C` [DMXAA, 5,6-dimethylxanthenone-4-acetic acid], the “IFN-β production from BMDCs in culture” value (STING signaling in BMDCs; DMXAA 5 μg/ml, 2 h) is reported as “strong IFN-β production” and the “STING signaling in BMDCs” value (STING signaling in BMDCs; Western blot) is reported as “activation of the STING signaling”.
With `CC(=O)O[C@H]1C(=O)[C@@]2(C)[C@H]([C@H](OC(=O)c3ccccc3)[C@]3(O)C[C@H](OC(=O)[C@H](O)[C@@H](NC(=O)c4ccccc4)c4ccccc4)C(C)=C1C3(C)C)[C@]1(OC(C)=O)CO[C@@H]1C[C@@H]2O` [paclitaxel] the “phosphorylation of TBK1 and IRF3 in BMDCs” value [4] was “increased” and the “IC50 values, Brca1-deficient lines” value [1] was “no substantial differences”.
